The values that follow come from the supplement of paper PMC11616607.

Each structure is given as a SMILES string.

One test deals with COV318. Nature of the test: drug sensitivity score (DSS) from 5-point dose-response viability curve (DSS (area-under-curve based score)); higher = more sensitive (stronger growth inhibition or killing); extreme values may be limits of the assay. The settings on record: exposure time: 72 h; concentration range: 5 concentrations over 10,000-fold range. Summed up: (§1)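 For the drug sensitivity score, obtained per cell line and drug in Breeze software, larger values mean greater sensitivity. No response corresponds to a score of zero. Ovarian cancer and normal ovarian cells were seeded at 1,500 per well into 384-well plates already holding acoustically dispensed drugs (Echo 550, DMSO or water, five concentrations over a 10,000-fold range) and incubated 3 days at 37°C, 5% CO2. CellTiter-Glo luminescence on a PHERAstar FS gave the viability readout.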
In turn, `COc1cc(N2CCN(C)CC2)ccc1Nc1nccc(-c2cn(C)c3cnccc23)n1` [AZ191] showed a drug sensitivity score of 4.1.
Same read-out and setting: the value for `FC(F)(F)c1ccc(CNc2ccc(Cc3c[nH]c4ncc(Cl)cc34)cn2)cn1` [Pexidartinib] was 0.7.
On the same count and under the same terms, the value for `CNC(=O)c1cc(Oc2ccc(NC(=O)Nc3ccc(Cl)c(C(F)(F)F)c3)c(F)c2)ccn1` [Regorafenib] was 0.6; that for `C[C@@H]1CN(Cc2ccc(F)cc2)[C@@H](C)CN1C(=O)c1cc2c(C(=O)C(=O)N(C)C)cn(C)c2cc1Cl` [Talmapimod] was 0; that for `COc1cc([C@@H]2c3cc4c(cc3[C@@H](O[C@@H]3O[C@@H]5CO[C@@H](c6cccs6)O[C@H]5[C@H](O)[C@H]3O)[C@H]3COC(=O)[C@H]23)OCO4)cc(OC)c1O` [Teniposide] was 0.
Still for that read-out and setting: the value for `COc1cc2ncnc(Nc3ccc(F)c(Cl)c3)c2cc1NC(=O)/C=C/CN1CCCCC1` [Dacomitinib] was 0.2; that for `CCOCc1nc2c(N)nc3ccccc3c2n1CC(C)(C)O` [Resiquimod] was 0; that for `Cc1ccc(C(=O)N(CCCN)[C@@H](c2oc3cc(Cl)ccc3c(=O)c2Cc2ccccc2)C(C)C)cc1` was 1.
In the case of `CN1CCC(CNc2ccc3ncc(-c4cccc(OC(F)(F)F)c4)n3n2)CC1` [SGI-1776], the drug sensitivity score stood at 4.7.
Regarding `Cc1ccc(-c2cc(C(F)(F)F)nn2-c2ccc(S(N)(=O)=O)cc2)cc1` [Celecoxib], the drug sensitivity score is 0.
Molecule `Oc1nc(-c2ccc(C(F)(F)F)cc2)nc2c1CSCC2` [XAV-939] gave a drug sensitivity score of 0.
Still for that read-out and setting: the figure for `COc1cc(Nc2ncc(F)c(Nc3ccc4c(n3)NC(=O)C(C)(C)O4)n2)cc(OC)c1OC` [Tamatinib] is 0.3.
On the same count and under the same terms, the value for `Nc1nc(Cl)nc2c1ncn2[C@H]1C[C@H](O)[C@@H](CO)O1` [Cladribine] was 0; that for `O=S(=O)(c1cccc2c(O)nccc12)N1CCCNCC1` [Hydroxyfasudil] was 0.1.
The same measure, in the same setting: the value for `Nc1nc(Cl)nc2c1ncn2[C@@H]1O[C@H](CO)[C@@H](O)[C@@H]1F` [Clofarabine] was 4.7.

For another test, the system named is OVCAR4. Described as above. The settings on record: exposure time: 72 h; concentration range: 5 concentrations over 10,000-fold range. The procedure, abridged: as §1
Molecule `COc1cc(N2CCN(C)CC2)ccc1Nc1nccc(-c2cn(C)c3cnccc23)n1` [AZ191] returned a drug sensitivity score of 0.6.
Same read-out and setting: the figure for `FC(F)(F)c1ccc(CNc2ccc(Cc3c[nH]c4ncc(Cl)cc34)cn2)cn1` [Pexidartinib] is 1.3; for `CNC(=O)c1cc(Oc2ccc(NC(=O)Nc3ccc(Cl)c(C(F)(F)F)c3)c(F)c2)ccn1` [Regorafenib] it is 1.6; for `C[C@@H]1CN(Cc2ccc(F)cc2)[C@@H](C)CN1C(=O)c1cc2c(C(=O)C(=O)N(C)C)cn(C)c2cc1Cl` [Talmapimod] it is 0.
Same read-out and setting: the value for `COc1cc([C@@H]2c3cc4c(cc3[C@@H](O[C@@H]3O[C@@H]5CO[C@@H](c6cccs6)O[C@H]5[C@H](O)[C@H]3O)[C@H]3COC(=O)[C@H]23)OCO4)cc(OC)c1O` [Teniposide] was 0; that for `COc1cc2ncnc(Nc3ccc(F)c(Cl)c3)c2cc1NC(=O)/C=C/CN1CCCCC1` [Dacomitinib] was 1.3.
Still for that read-out and setting: the value for `CCOCc1nc2c(N)nc3ccccc3c2n1CC(C)(C)O` [Resiquimod] was 0.3; that for `Cc1ccc(C(=O)N(CCCN)[C@@H](c2oc3cc(Cl)ccc3c(=O)c2Cc2ccccc2)C(C)C)cc1` was 3.4.
Molecule `CN1CCC(CNc2ccc3ncc(-c4cccc(OC(F)(F)F)c4)n3n2)CC1` [SGI-1776] returned a drug sensitivity score of 3.3.
In turn, `Cc1ccc(-c2cc(C(F)(F)F)nn2-c2ccc(S(N)(=O)=O)cc2)cc1` [Celecoxib] had a drug sensitivity score of 0.
The same measure, in the same setting: the figure for `Oc1nc(-c2ccc(C(F)(F)F)cc2)nc2c1CSCC2` [XAV-939] is 3.6.
On the same count and under the same terms, the value for `COc1cc(Nc2ncc(F)c(Nc3ccc4c(n3)NC(=O)C(C)(C)O4)n2)cc(OC)c1OC` [Tamatinib] was 0; that for `Nc1nc(Cl)nc2c1ncn2[C@H]1C[C@H](O)[C@@H](CO)O1` [Cladribine] was 0; that for `O=S(=O)(c1cccc2c(O)nccc12)N1CCCNCC1` [Hydroxyfasudil] was 0.
Same read-out and setting: the figure for `Nc1nc(Cl)nc2c1ncn2[C@@H]1O[C@H](CO)[C@@H](O)[C@@H]1F` [Clofarabine] is 0.

A further test relates to HOSE1C. Described as above. The settings on record: exposure time: 72 h; concentration range: 5 concentrations over 10,000-fold range. The procedure, abridged:
as §1
Consider `COc1cc(N2CCN(C)CC2)ccc1Nc1nccc(-c2cn(C)c3cnccc23)n1` [AZ191], for which the drug sensitivity score turned out to be 1.
Still for that read-out and setting: the value for `FC(F)(F)c1ccc(CNc2ccc(Cc3c[nH]c4ncc(Cl)cc34)cn2)cn1` [Pexidartinib] was 0.
Still for that read-out and setting: the figure for `CNC(=O)c1cc(Oc2ccc(NC(=O)Nc3ccc(Cl)c(C(F)(F)F)c3)c(F)c2)ccn1` [Regorafenib] is 1.6; for `C[C@@H]1CN(Cc2ccc(F)cc2)[C@@H](C)CN1C(=O)c1cc2c(C(=O)C(=O)N(C)C)cn(C)c2cc1Cl` [Talmapimod] it is 0.
For `COc1cc([C@@H]2c3cc4c(cc3[C@@H](O[C@@H]3O[C@@H]5CO[C@@H](c6cccs6)O[C@H]5[C@H](O)[C@H]3O)[C@H]3COC(=O)[C@H]23)OCO4)cc(OC)c1O` [Teniposide], the drug sensitivity score was found to be 0.
Turning to `COc1cc2ncnc(Nc3ccc(F)c(Cl)c3)c2cc1NC(=O)/C=C/CN1CCCCC1` [Dacomitinib], the drug sensitivity score worked out at 1.1.
Still for that read-out and setting: the value for `CCOCc1nc2c(N)nc3ccccc3c2n1CC(C)(C)O` [Resiquimod] was 0; that for `Cc1ccc(C(=O)N(CCCN)[C@@H](c2oc3cc(Cl)ccc3c(=O)c2Cc2ccccc2)C(C)C)cc1` was 15.8.
On the same count and under the same terms, the figure for `CN1CCC(CNc2ccc3ncc(-c4cccc(OC(F)(F)F)c4)n3n2)CC1` [SGI-1776] is 8.
The same measure, in the same setting: the figure for `Cc1ccc(-c2cc(C(F)(F)F)nn2-c2ccc(S(N)(=O)=O)cc2)cc1` [Celecoxib] is 0.
Molecule `Oc1nc(-c2ccc(C(F)(F)F)cc2)nc2c1CSCC2` [XAV-939] showed a drug sensitivity score of 0.
Still for that read-out and setting: the value for `COc1cc(Nc2ncc(F)c(Nc3ccc4c(n3)NC(=O)C(C)(C)O4)n2)cc(OC)c1OC` [Tamatinib] was 0; that for `Nc1nc(Cl)nc2c1ncn2[C@H]1C[C@H](O)[C@@H](CO)O1` [Cladribine] was 0.
In the case of `O=S(=O)(c1cccc2c(O)nccc12)N1CCCNCC1` [Hydroxyfasudil], the drug sensitivity score came to 0.
Still for that read-out and setting: the figure for `Nc1nc(Cl)nc2c1ncn2[C@@H]1O[C@H](CO)[C@@H](O)[C@@H]1F` [Clofarabine] is 25.
